# Assay: Body weights and clinical observations in the rat single dose decorporation study
# Type: in vivo, Sprague Dawley rat
# Conditions: for Mean body weight: in g (unit assumed)
# Text: Each rat was weighed at contamination (Day 0) and the terminal body weight (Day 7) was taken at necropsy.
compound,measurement,setting,value
"CCOC(=O)CN(CCN(CCN(CC(=O)O)CC(=O)OCC)CC(=O)O)CC(=O)O [C2E2, 6,9-bis(carboxymethyl)-3-(2-ethoxy-2-oxoethyl)-11-oxo-12-oxa-3,6,9-triazatetradecan-1-oic acid]",Mean Percentage Body Weight Change,"Female, C2E2 200 mg/kg, Fasted",0.8 ± 2.2%
same,Mean Percentage Body Weight Change,"Female, C2E2 200 mg/kg, ad libitum",0.0 ± 2.5%
same,Mean Percentage Body Weight Change,"Female, C2E2 600 mg/kg, Fasted",−2.3 ± 3.3%
same,Mean Percentage Body Weight Change,"Female, C2E2 600 mg/kg, ad libitum",1.1 ± 1.2%
same,Mean Percentage Body Weight Change,"Female, C2E2 1000 mg/kg, Fasted",−5.0 ± 2.9%
same,Mean Percentage Body Weight Change,"Female, C2E2 1000 mg/kg, ad libitum",0.7 ± 2.1%
same,Mean Percentage Body Weight Change,"Male, C2E2 200 mg/kg, Fasted",8.1 ± 8.4%
same,Mean Percentage Body Weight Change,"Male, C2E2 200 mg/kg, ad libitum",10.4 ± 11.0%
same,Mean Percentage Body Weight Change,"Male, C2E2 600 mg/kg, Fasted",12.6 ± 3.1%
same,Mean Percentage Body Weight Change,"Male, C2E2 600 mg/kg, ad libitum",10.1 ± 3.1%
same,Mean Percentage Body Weight Change,"Male, C2E2 1000 mg/kg, Fasted",12.0 ± 4.8%
same,Mean Percentage Body Weight Change,"Male, C2E2 1000 mg/kg, ad libitum",10.6 ± 0.8%
same,Mean body weight,"female rats, C2E2 200 mg/kg, Fasted, Day 0",245.0 ± 11.6
same,Mean body weight,"female rats, C2E2 200 mg/kg, Fasted, Day 7 (terminal)",246.8 ± 9.6
same,Mean body weight,"female rats, C2E2 200 mg/kg, ad libitum, Day 0",276.8 ± 17.3
same,Mean body weight,"female rats, C2E2 200 mg/kg, ad libitum, Day 7 (terminal)",276.5 ± 15.1
same,Mean body weight,"female rats, C2E2 600 mg/kg, Fasted, Day 0",280.5 ± 28.0
same,Mean body weight,"female rats, C2E2 600 mg/kg, Fasted, Day 7 (terminal)",273.5 ± 19.2
same,Mean body weight,"female rats, C2E2 600 mg/kg, ad libitum, Day 0",247.0 ± 13.8
same,Mean body weight,"female rats, C2E2 600 mg/kg, ad libitum, Day 7 (terminal)",249.7 ± 14.5
same,Mean body weight,"female rats, C2E2 1000 mg/kg, Fasted, Day 0",276.3 ± 17.9
same,Mean body weight,"female rats, C2E2 1000 mg/kg, Fasted, Day 7 (terminal)",262.7 ± 23.8
same,Mean body weight,"female rats, C2E2 1000 mg/kg, ad libitum, Day 0",232.5 ± 19.3
same,Mean body weight,"female rats, C2E2 1000 mg/kg, ad libitum, Day 7 (terminal)",234.2 ± 21.4
same,Clinical observations,"male and female rats, 200, 600, 1000 mg/kg single oral dose, 7 days",No adverse C2E2 exposure-related clinical observations
same,Mean body weight,"male rats, C2E2 200 mg/kg, Fasted, Day 0",291.3 ± 12.7
same,Mean body weight,"male rats, C2E2 200 mg/kg, Fasted, Day 7 (terminal)",314.2 ± 14.4
same,Mean body weight,"male rats, C2E2 200 mg/kg, ad libitum, Day 0",296.3 ± 9.4
same,Mean body weight,"male rats, C2E2 200 mg/kg, ad libitum, Day 7 (terminal)",326.5 ± 25.7
same,Mean body weight,"male rats, C2E2 600 mg/kg, Fasted, Day 0",275.9 ± 9.7
same,Mean body weight,"male rats, C2E2 600 mg/kg, Fasted, Day 7 (terminal)",310.6 ± 9.1
same,Mean body weight,"male rats, C2E2 600 mg/kg, ad libitum, Day 0",292.8 ± 5.1
same,Mean body weight,"male rats, C2E2 600 mg/kg, ad libitum, Day 7 (terminal)",322.2 ± 6.4
same,Mean body weight,"male rats, C2E2 1000 mg/kg, Fasted, Day 0",270.3 ± 5.8
same,Mean body weight,"male rats, C2E2 1000 mg/kg, Fasted, Day 7 (terminal)",302.8 ± 14.2
same,Mean body weight,"male rats, C2E2 1000 mg/kg, ad libitum, Day 0",290.5 ± 6.6
same,Mean body weight,"male rats, C2E2 1000 mg/kg, ad libitum, Day 7 (terminal)",321.2 ± 6.5

# Source: patent publication US9546129B2, “DTPA prodrugs, compositions thereof, and methods of using the same” (priority 2012, dated 2017)
